Where two headings read alike, the source gives them in different places.
Key:
[1] = test system: HCV genotype 2a (Huh7.5-J6/JFH1); assay: HCV particle production: infectivity of supernatant on naive Huh7.5 cells by real-time RT-PCR; assay type: cell-based, hepatitis C virus; settings: 10 μM
Description: A922500, a commercially available DGAT-1-specific inhibitor was used as a positive control [10]. […] Therefore, we decided to examine effects of these twelve DGAT inhibitors on HCV particle production as well as RNA genome replication in parallel. For this purpose, we transfected Huh7.5 cells with in vitro-transcribed genotype 2a HCV RNAs (Huh7.5-J6/JFH1) [16] and treated them with each DGAT inhibitor for 6 and 72 h at 10 μM. HCV genome replication as well as host GAPDH RNA levels was quantitated by a real-time RT-PCR analysis. For assessment of HCV particle production, we harvested and filtered the supernatant from Huh7.5-J6/JFH1 cells treated with DGAT inhibitors and incubated the supernatant with naïve huh7.5 cells for 72 h. Then, infectivity was measured by a real-time RT-PCR analysis.
Huh7.5-J6/JFH-1 cells were seeded into 6-well plates at a density of 3 × 10^5 cells per well with DMEM containing 10% FBS. […] Total RNAs were extracted from treated cells and virus-containing media were harvested at each time point. Naïve Huh7.5 cells were infected with these virus-containing media after concentration with centricons.

[2] = test system: luciferase-linked genotype 2a HCV RNAs; assay: microbe, parasite or virus in culture; assay type: cell-based, hepatitis C virus; settings: read-out: EC50 (HCV replication)
Description: (§1) To order to study impacts of DGAT inhibitors on HCV genome replication independently of the particle production, we decided to examine effects of these twelve DGAT inhibitors on the levels of viral RNA genome and cell viability in parallel. […] Then, we treated them with an increasing concentration of each DGAT inhibitor. Then, luciferase and MTT-based cell viability assays were performed to determine EC50 and CC50 (cytotoxic concentration required to kill 50% of treated cells) values, respectively.
(§2) Cell viability was measured with EZ-CYTOX (10% tetrazolium salt; Dogen, Gyeonggi-do, Korea) as described previously. Anti-HCV replication analysis using a luciferase assay was conducted as previously described.

[3] = MTT-based cell viability assay (EZ-CYTOX); settings: human
Description: as §1, §2

[4] = test system: DGATs (rat liver microsome); parameters: method as in PMID 23141914, PMID 23242135; settings: cited from earlier work
[5] = test system: recombinant DGAT-1; parameters: method as in PMID 23242135; settings: recombinant DGAT-1, [14C] oleoyl-CoA as acyl-donor; cited from earlier work
[6] = test system: recombinant DGAT-2; parameters: method as in PMID 23242135; settings: cited from earlier work
[7] = test system: HepG2 cells; parameters: method as in PMID 23242135; settings: [14C] glycerol as substrate; cited from earlier work
[8] = test system: HCV NS3 (Huh7.5-J6/JFH1, genotype 2a); assay: western blot of HCV NS3 protein in Huh7.5-J6/JFH1 cells; settings: positive control
Description: Due to the tight coupling of viral genome replication to its protein expression, inhibition of viral RNA genome replication leads to a subsequent reduction of viral protein expression.
(A) Dose-dependent western blot analysis of Huh7.5-J6/JFH1 cells treated with increasing concentrations of 10j for 72 h by measuring protein expression levels of HCV NS3 relative to the β-actin. Daclatasvir, an NS5A inhibitor was used as a positive control. (B) Time-dependent western blot analysis of J6/JFH1 RNA-transfected Huh7.5 cells treated with 8 μM of 10j for increasing periods of time analyzed by measuring protein expression levels of HCV NS3 relative to the β-actin. (C,D) Same experiments were performed as in (A,B) to study effects of 10j on the expression levels of the NS5A protein of Huh7.5-Bart79I cells in a dose- as well as time-dependent manners.
Western blot analysis of Huh7.5-J6/JFH1 or Bart79I cells treated with 10j was conducted as previously described. Relative amounts of HNF4α proteins were quantified by using an HNF4α mouse monoclonal antibody (M04), clone 4E2 (Abnova) with the dilution of 1:1000.

[9] = Hepatitis C virus, Huh7.5, luciferase-linked genotype 2a HCV RNA in Huh7.5 cells

Row | Structure (SMILES) | effect on HCV particle production ([1]; 6 h (Figure 1B)) | effect on HCV particle production ([1]; 72 h (Figure 1D)) | EC50 [2, 9] [µM] | CC50 [3] [µM] | IC50 [4] [µM] | IC50 [5] [µM] | IC50 [6] [µM] | TG % (10 μM in HepG2), relative [14C] triglyceride percentage [7] [%] | EC50 ([2]; luciferase-linked genotype 2a HCV RNA in Huh7.5 cells) [µM] | expression of viral proteins [8]
1 | CC(C)NC(=O)c1cccc(NC(=O)/C=C/c2cn(C(=O)OC(C)(C)C)c3ccccc23)c1 [5a] | able to block HCV particle production | suppress the viral particle production | 1.9 | 3.7 | 8.8 | > 100 | 6.9 |  |  | 
2 | CC(C)(C)OC(=O)n1cc(/C=C/C(=O)Nc2cccc(C(=O)N3CCCC3)c2)c2ccccc21 [5c] |  | suppress the viral particle production | > 10 | > 10 | 13.2 | 89.1 | 6.8 |  |  | 
3 | CC(C)(C)OC(=O)n1cc(/C=C/C(=O)Nc2cccc(C(=O)NCc3ccco3)c2)c2ccccc21 [5h] | able to block HCV particle production | suppress the viral particle production | 2.1 | 5.1 | 2.5 | > 100 | 6.9 | 33.2 |  | 
4 | Cc1ccc(CNC(=O)c2cccc(NC(=O)/C=C/c3cn(C(=O)OC(C)(C)C)c4ccccc34)c2)o1 [5j] |  | suppress the viral particle production | 1.1 | 3.4 | 9.4 | > 100 | 7.4 |  |  | 
5 | CC(C)CCn1cc(/C=C/C(=O)N(NC(=O)c2cccc(F)c2)C(C)C)c2ccccc21 [8h] |  | suppress the viral particle production | 6.7 | > 10 |  | 20.4 | > 10 | 71.2 |  | 
6 | CC(C)CCn1cc(/C=C/C(=O)N(NC(=O)c2ccc(F)cc2)C(C)C)c2ccccc21 [8i] |  | suppress the viral particle production | 5.1 | > 10 |  | 2.1 | > 10 | 94.8 |  | 
7 | CC(C)=CCn1cc(/C=C/C(=O)N(NC(=O)c2cccc(F)c2)C(C)C)c2ccccc21 [8u] |  | suppress the viral particle production | > 10 | > 10 |  | 1.5 | > 10 | 55.7 |  | 
8 | O=C(c1ccc2nc(COc3ccc(C45CC6CC(CC(C6)C4)C5)cc3)[nH]c2c1)N1CCCCC1 [10e] |  |  | > 10 | > 10 | 27.5 |  |  |  |  | 
9 | O=C(Nc1ccccc1)c1ccc2nc(COc3ccc(C45CC6CC(CC(C6)C4)C5)cc3)[nH]c2c1 [10f] |  |  | > 10 | > 10 | > 50 |  |  |  |  | 
10 | O=C(NCc1ccccc1)c1ccc2nc(COc3ccc(C45CC6CC(CC(C6)C4)C5)cc3)[nH]c2c1 [10h] |  |  | < 10 | > 10 | > 50 |  |  |  | 7.7 | 
11 | O=C(NCc1ccccn1)c1ccc2nc(COc3ccc(C45CC6CC(CC(C6)C4)C5)cc3)[nH]c2c1 [10i] |  |  |  | 3.9 | 20 |  |  |  |  | 
12 | COC(=O)N[C@H](C(=O)N1CCC[C@H]1c1nc(-c2ccc(-c3ccc(-c4c[nH]c([C@@H]5CCCN5C(=O)[C@@H](NC(=O)OC)C(C)C)n4)cc3)cc2)c[nH]1)C(C)C [Daclatasvir, reference compound] |  |  |  |  |  |  |  |  |  | able to inhibit expression of viral proteins

Source: publication PMC6222871, “Suppression of Hepatitis C Virus Genome Replication and Particle Production by a Novel Diacylglycerol Acyltransferases Inhibitor” (Molecules : A Journal of Synthetic Chemistry and Natural …, 2018)
